Results: patent publication US20070299129A1, “Compounds and derivatives for the treatment of medical conditions by modulating hormone-sensitive lipase activity” (DEVIRIS INC., priority 2006, published 2007)
Where “and” joins values, the source holds several entries; their conditions need not be identical. Identical values can stand only once.

Tests used:
[1] = biological target: T1, recombinant His-HSL (hormone-sensitive lipase) (Rattus norvegicus, UniProt P15304); assay: Assay for potency of inhibition on HSL activity (neutral cholesteryl ester hydrolase activity, cholesteryl [1-14C]oleate), Example 1; type: biochemical; details: for % inhibition of HSL: in the presence of DTT (1 mM), inhibitor range 0-2.4 mg/mL (FIG. 1, Table 1); for HSL Activity (DPM) (average): HSL + DTT (1 mM), control without inhibitor 1585.64 DPM
T1 construct: cloning full-length rat HSL cDNA into the SmaI site of pAcHLT-A; His6 (N); made in house; host or cells: Sf21 insect cells (baculovirus, BaculoGold)
T1 sequence (P15304 1-768 isoform P15304-2): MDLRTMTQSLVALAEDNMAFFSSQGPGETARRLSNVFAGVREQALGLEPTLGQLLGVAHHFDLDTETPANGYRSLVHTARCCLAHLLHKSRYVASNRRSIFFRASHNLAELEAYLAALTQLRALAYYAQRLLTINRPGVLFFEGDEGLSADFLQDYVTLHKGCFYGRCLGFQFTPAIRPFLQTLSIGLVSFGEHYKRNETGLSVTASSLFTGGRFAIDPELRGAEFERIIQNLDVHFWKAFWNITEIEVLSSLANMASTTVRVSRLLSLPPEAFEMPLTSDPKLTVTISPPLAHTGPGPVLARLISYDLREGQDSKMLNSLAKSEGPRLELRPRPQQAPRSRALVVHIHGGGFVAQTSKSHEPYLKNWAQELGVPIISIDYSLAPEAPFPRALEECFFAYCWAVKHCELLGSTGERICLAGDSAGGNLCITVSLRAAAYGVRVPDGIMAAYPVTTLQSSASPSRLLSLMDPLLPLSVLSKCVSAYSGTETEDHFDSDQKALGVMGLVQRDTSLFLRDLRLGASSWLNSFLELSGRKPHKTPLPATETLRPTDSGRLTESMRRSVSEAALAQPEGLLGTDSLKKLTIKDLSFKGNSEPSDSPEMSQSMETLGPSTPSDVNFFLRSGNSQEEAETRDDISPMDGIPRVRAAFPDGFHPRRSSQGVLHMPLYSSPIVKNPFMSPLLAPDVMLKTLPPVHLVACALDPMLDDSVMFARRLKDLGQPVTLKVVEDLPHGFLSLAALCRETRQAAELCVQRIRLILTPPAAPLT
Description: Production of Recombinant HSL: Recombinant His-HSL was generated by cloning full-length rat HSL cDNA into the SmaI site of pAcHLT-A containing a His6 tag. pAcHLT-A-HSL (5 μg) was co-transfected into Sf21 cells with 0.5 μg of BaculoGold™ DNA using the transfection kit from the manufacturer. The titer of the recombinant virus was determined using an end point dilution assay, and the virus was re-amplified to a final titer of 1.5×10^7 pfu/ml. To produce recombinant proteins, Sf21 cells were grown in 150 mm Petri dishes and each 2×10^7 cells were infected with 100 μl of the high titer recombinant virus; cells were harvested three days after infection. After harvesting and cell extraction, His-HSL was purified on a Ni-agarose column.
Preparation of Substrate for Neutral Cholesteryl Ester Hydrolase Activity Assay: HSL activity was determined as neutral cholesteryl ester hydrolase activity using a cholesteryl[1-14C]oleate emulsion for measurement of cellular activity, as described previously. Substrate for the cholesteryl ester assay was prepared by adding 1.25 μCi cholesteryl [1-14C]oleate (purified by thin-layer chromatography), 0.043 mmol phosphatidylcholine, and 0.011 mmol cholesteryl oleate into 2.5 mL of 100 mM potassium phosphate buffer (pH 7.0) containing 5 mM sodium taurocholate. The substrate solution was vortexed and then sonicated for 3 hours with a Branson Sonifier/Cell Disruptor model W-350 on an output setting of 5.0 (50%). The substrate was centrifuged at 3000 rpm for 15 min to remove metallic fragments released by the probe and stored under nitrogen at 4° C. for up to one week.
Preparation of Inhibitor Stock Solution: Inhibitors (fraction # O-4355, O-4350, O-4361, O-4456, O-4457) were obtained from olives, olive oil, roots, bark and leaves from olea europeae species as previously described (Paiva-Martins et al., J. Agric. Food Chem., 49:4214-4219, 2001) and dissolved in 200 μL DMSO with 800 μL distilled water at a concentration of 10 mg/ml. This was regarded as stock solution. 0-60 μL of the stock solution were added to the HSL assay to achieve a final concentration of 0-2.4 mg/ml of the inhibitors. The same volume of DMSO without inhibitors was performed as a control.
Assay for Potency of Inhibition on HSL Activity by the Inhibitors: Aliquots of recombinant HSL protein and various concentrations of inhibitors (0-2.4 mg/mL final concentration) were mixed and the volume adjusted to 100 μL and mixed with 140 μL 0.05% bovine serum albumin in 100 mM potassium phosphate, pH 7.0. After the addition of 10 μL of substrate (100 μM final concentration), the assay was carried out at 37° C. for 60 min. The reaction was stopped by the addition of chloroform:methanol:heptane (250:230:180). After the addition of borate/carbonate buffer (0.1 M, pH, 10.5), the tubes were vortexed and centrifuged, and aliquots of the upper phase were taken for liquid scintillation counting in a Beckman scintillation counter.

[2] = biological target: T2, COX-2 (Homo sapiens, UniProt P35354); details: Smith et al., Organic Letters, 7:5075-5078, 2005; cited from earlier work
T2 sequence (P35354 18-604): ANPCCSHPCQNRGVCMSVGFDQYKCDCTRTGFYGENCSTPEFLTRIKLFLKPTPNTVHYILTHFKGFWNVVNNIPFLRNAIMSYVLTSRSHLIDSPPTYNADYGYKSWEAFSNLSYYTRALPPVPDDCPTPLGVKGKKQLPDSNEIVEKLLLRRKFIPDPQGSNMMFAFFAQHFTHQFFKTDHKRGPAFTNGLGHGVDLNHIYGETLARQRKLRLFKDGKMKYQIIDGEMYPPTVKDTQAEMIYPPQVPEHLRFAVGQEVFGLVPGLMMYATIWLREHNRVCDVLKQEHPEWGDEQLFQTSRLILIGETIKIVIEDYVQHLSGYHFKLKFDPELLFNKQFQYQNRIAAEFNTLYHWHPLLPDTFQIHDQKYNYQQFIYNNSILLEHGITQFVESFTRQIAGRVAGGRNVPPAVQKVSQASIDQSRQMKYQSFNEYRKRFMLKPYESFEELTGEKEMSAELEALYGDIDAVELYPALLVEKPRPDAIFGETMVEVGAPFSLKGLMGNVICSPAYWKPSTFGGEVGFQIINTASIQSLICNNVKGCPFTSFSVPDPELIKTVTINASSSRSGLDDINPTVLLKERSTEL

## C/C=C(/C=O)[C@@H](CC=O)CC(=O)OCCc1ccc(O)cc1 [O-4456, para-hydroxyphenylelenolic acid dialdehyde]
[1]
  % inhibition of HSL: 98% and 98.42%
[1]; inhibitor 0.4 mg/mL
  HSL Activity (DPM) (average): 123.5 DPM
[1]; inhibitor 0.8 mg/mL
  HSL Activity (DPM) (average): 52.6035 DPM
[1]; inhibitor 1.2 mg/mL
  HSL Activity (DPM) (average): 51.145 DPM
[1]; inhibitor 1.6 mg/mL
  HSL Activity (DPM) (average): 88.595 DPM
[1]; inhibitor 2.0 mg/mL
  HSL Activity (DPM) (average): 49.56 DPM
[1]; inhibitor 2.4 mg/mL
  HSL Activity (DPM) (average): 25.035 DPM
[2]
  anti-COX-2 activity: having anti-COX-2 activity

## CC=C(C=O)C(CC=O)CC(=O)OCCc1ccc(O)c(O)c1 (stereo not drawn) [O-4457, 3,4-dihydroxyphenylelenolic acid dialdehyde]
[1]
  % inhibition of HSL: 97% and 97.95%
[1]; inhibitor 0.4 mg/mL
  HSL Activity (DPM) (average): 214.85 DPM
[1]; inhibitor 0.8 mg/mL
  HSL Activity (DPM) (average): 87.105 DPM
[1]; inhibitor 1.2 mg/mL
  HSL Activity (DPM) (average): 48.025 DPM
[1]; inhibitor 1.6 mg/mL
  HSL Activity (DPM) (average): 49.885 DPM
[1]; inhibitor 2.0 mg/mL
  HSL Activity (DPM) (average): 39.545 DPM
[1]; inhibitor 2.4 mg/mL
  HSL Activity (DPM) (average): 32.495 DPM
